{
  "source": "patent US20080242729A1",
  "about": "“Rxr Antagonists in the Treatment of Inflammatory Diseases” (priority 2004, published 2008)",
  "key": {"[1]": {"system": "synovial fibroblasts / human cartilage", "test": "In vitro cartilage degradation by synovial fibroblasts from a RA patient, release of sGAG", "format": "cell-based", "experimental": "(§1) The effect of RXR antagonists on the activity of synovial fibroblasts, dependent on their state of activation, i.e. modified by a concomitant stimulation by the inflammatory cytokine Interleukin-1β (IL-1β), is determined. Furthermore, it is determined whether this is accompanied by a modulation in the accumulation of the mRNA encoding catabolic enzyme matrix metalloproteinase-1 (MMP-1), responsible for degradation of human cartilage and consequently joint destruction in man. Adherent synovial fluid cells taken from a patient with RA are used after 5 passages in an in vitro assay for cartilage destruction. The cells incubated in flasks coated with 0.1% (0.1 g/100 ml) human cartilage powder are fixed using Matrigel® (BD Biosciences, Becton, Dickinson & Co., Boston, Miss., USA). The release of sulphated glycosaminoglycan (sGAG) into the culture medium is monitored by a commercial calorimetric test according to a method described by S. Björnsson, see Anal. Biochem. 256, 229-237 (1998) using an alcian blue dot plot analysis, and the accumulation of mRNA encoding MMP-1 is quantified by real time PCR (TaqMan® (Roche Diagnostics, Basle, Switzerland)).\nThe retinoid agonists all-trans retinoic acid and 9-cis retinoic acid, both physiological metabolites of vitamin A, as well as the RXR antagonist compound A, diluted first in ethanol, and then diluted with vehicle or medium to the desired dose/concentration are tested in a time course (0-35 days for the in vitro assay, 0-48 hours for MMP-1 mRNA, see tables 7, 8 and 10) and dose-dependent (10^−7 to 10^−9 M, see tables 5, 6 and 9). This is conducted in the presence or absence of IL-1β (100 pg/ml)."}, "MMP-1 mRNA": {"system": "MMP-1 mRNA", "test": "MMP-1 mRNA accumulation in synovial fibroblasts (real time PCR)", "format": "cell-based, human", "experimental": "as §1, with “Switzerland)). […] This is conducted in the presence or absence of IL-1β (100 pg/ml).” for “Switzerland)).”"}, "human skin [2]": {"system": "human skin", "test": "Clinical pilot trial: inflammation potential on healthy, non-inflamed human skin (epicutaneous)", "format": "in vivo", "description": "In a clinical pilot trial on one healthy volunteer compound A is applied epicutaneously in a concentration of 1% for its inflammation potential compared to that of the strong inflammation inducing agent 9-cis RA in concentrations of 0.1%, 0.3% and 1%.\nThe compounds are solved or suspended in ethanol/propylene glycol (1:1). They are applied epicutaneously twice daily, 7 days a week, for two consecutive weeks. The site of application is an area of 3×3=9 cm^2 on the abdominal skin. The volume is 0.1 ml per application.\nThe following signs and symptoms of skin inflammation are recorded: Erythema, desquamation (scaling), pruritus, burning, pain, exsudation, edema, ulceration. They are classified on a scale of:\nTreatment period lasts from day 1 to 14, the post-treatment observation period from day 15 to day 28"}, "normal skin of mice": {"system": "normal skin of mice", "test": "Effect on normal, non-inflamed skin of mice", "format": "in vivo, mice (C57BL/6)", "settings": "mouse ears", "experimental": "The effect of the RXR antagonist compound A on normal skin of mice is investigated. The ears of C57BL/6 mice are treated epicutaneously (topically) for 4 consecutive days with compound A in a concentration of 0.05% and 2.5% in acetone/ethanol (1:1, v/v). Comparison with vehicle control. Daily observation of skin reactions, in particular inflammation, erythema, desquamation, and edema follows. Myeloperoxidase (MPO) activity is determined. The activity of MPO is considered the most sensitive criterium for the assessment of inflammation of the skin (see above, Examples 1 and 2)."}, "human skin [3]": {"system": "human skin", "test": "Clinical pilot trial: preventive and therapeutic effect on 9-cis RA induced human skin inflammation", "format": "in vivo", "settings": "Therapy: 9-cis RA 0.3% day 1 to day 14, compound A 1% from day 15", "experimental": "In this pilot clinical trial on one healthy volunteer, the substance 9-cis RA and compound A are administered epicutaneously. The inflammation-inducing agent 9-cis RA is used in a concentration of 0.3%. The RXR antagonist compound A is applied in a concentration of 1%. The compounds are solved in ethanol/propylene glycol (1:1) and administered twice daily. The site of application is the abdominal skin, with various areas of 3×3=9 cm^2. Volume per application is 0.1 ml.\nThe following three clinical settings at different sites are chosen:\n1. Induction of Skin Inflammation by 9-cis RA • 9-cis RA is administered as a 0.3% solution twice daily from day 1 to day 14. The vehicle is administered from day 15 to disappearances of skin inflammation.\n2. Prevention of 9-cis RA-Induced Skin Inflammation by RXR Antagonist Compound A • 9-cis RA solution of 0.3% is administered twice daily from day 1 to day 14, each time followed subsequently by application of compound A as a 1% solution.\n3. Therapy of 9-Cis RA-Induced Skin Inflammation by RXR Antagonist Compound A • 9-cis RA solution of 0.3% is administered twice daily from day 1 to day 14. Compound A as a 1% solution is administered from day 15 until disappearance of skin inflammation.\nThe signs and symptoms of skin inflammation are recorded on a 0-4 scale, as described in example 16. […]"}, "human skin [4]": {"system": "human skin", "test": "Clinical phase I trial: skin inflammation induced by Candidin or UV-B irradiation in healthy volunteers", "format": "in vivo", "settings": "Candidin intradermal or UV-B induced, topical treatment days 1-3, 4 volunteers; compound A 1% lotion, comparators as creams", "experimental": "Four healthy volunteers participate. Inclusion criteria are: Age above 18 years, male or female. They are informed, with written letter of consent. Exclusion criteria are: Preexistant dermatological diseases, known allergy to test agents.\nInflammation inducing agents: Candidin is administered intradermally (see also D. Poffet, Comparaison entre le pouvoir vaso-constricteur d'un corticoide topique et l'inhibition de la dermite à la candidine après intradermoréaction (IDR). Thèse, Université de Genève, 1984). UV-B rays are administered by a UV-B lamp.\nInflammation is measured quantitatively. The area of the inflamed skin is measured in cm^2. The thickness of the skin is monitored by Ultrasound at 20 MHz. Erythema is measured by calorimetric determination employing a Minolta CR 20. […]\nAll determinations are recorded on a scale from 0 to 4: • 0=no reduction • 1=slight reduction (10 to 20%) • 2=moderate reduction (21 to 40%) • 3=marked reduction (41 to 70%) • 4=very marked reduction (71 to 100%) • Compared to vehicle control."}},
  "data": [
    {"smiles": "CC1=C(/C=C/C(C)=C\\C=C\\C(C)=C\\C(=O)O)C(C)(C)CCC1", "note": "[9-cis RA, 9-cis retinoic acid]", "values": [
      {"measurement": "sGAG in μg/ml (release of sGAG/14 days)", "setting": "[1]; 10^−7 M, absence of IL-1β", "result": 189, "unit": "µg/mL"},
      {"measurement": "sGAG in μg/ml (release of sGAG/14 days)", "setting": "[1]; 10^−7 M, presence of 100 pg/ml IL-1β", "result": 221, "unit": "µg/mL"},
      {"measurement": "sGAG in μg/ml (release of sGAG/14 days)", "setting": "[1]; 10^−8 M, absence of IL-1β", "result": 107, "unit": "µg/mL"},
      {"measurement": "Cumulative μg/ml sGAG/14 days", "setting": "[1]; 10^−8 M, absence of IL-1β, day 7", "result": 44, "unit": "µg/mL"},
      {"measurement": "Cumulative μg/ml sGAG/14 days", "setting": "[1]; 10^−8 M, absence of IL-1β, day 14", "result": 107, "unit": "µg/mL"},
      {"measurement": "Cumulative μg/ml sGAG/14 days", "setting": "[1]; 10^−8 M, absence of IL-1β, day 21", "result": 206, "unit": "µg/mL"},
      {"measurement": "Cumulative μg/ml sGAG/14 days", "setting": "[1]; 10^−8 M, absence of IL-1β, day 28", "result": 253, "unit": "µg/mL"},
      {"measurement": "Cumulative μg/ml sGAG/14 days", "setting": "[1]; 10^−8 M, absence of IL-1β, day 35", "result": 292, "unit": "µg/mL"},
      {"measurement": "sGAG in μg/ml (release of sGAG/14 days)", "setting": "[1]; 10^−8 M, presence of 100 pg/ml IL-1β", "result": 189, "unit": "µg/mL"},
      {"measurement": "Cumulative μg/ml sGAG/14 days", "setting": "[1]; 10^−8 M, presence of 100 pg/ml IL-1β, day 7", "result": 68, "unit": "µg/mL"},
      {"measurement": "Cumulative μg/ml sGAG/14 days", "setting": "[1]; 10^−8 M, presence of 100 pg/ml IL-1β, day 14", "result": 189, "unit": "µg/mL"},
      {"measurement": "Cumulative μg/ml sGAG/14 days", "setting": "[1]; 10^−8 M, presence of 100 pg/ml IL-1β, day 21", "result": 330, "unit": "µg/mL"},
      {"measurement": "Cumulative μg/ml sGAG/14 days", "setting": "[1]; 10^−8 M, presence of 100 pg/ml IL-1β, day 28", "result": 407, "unit": "µg/mL"},
      {"measurement": "Cumulative μg/ml sGAG/14 days", "setting": "[1]; 10^−8 M, presence of 100 pg/ml IL-1β, day 35", "result": 441, "unit": "µg/mL"},
      {"measurement": "sGAG in μg/ml (release of sGAG/14 days)", "setting": "[1]; 10^−9 M, absence of IL-1β", "result": 64, "unit": "µg/mL"},
      {"measurement": "sGAG in μg/ml (release of sGAG/14 days)", "setting": "[1]; 10^−9 M, presence of 100 pg/ml IL-1β", "result": 204, "unit": "µg/mL"},
      {"measurement": "MMP-1 mRNA in relative units (fold increase of baseline value)", "setting": "MMP-1 mRNA; 10^−7 M, after 24 hours", "result": 2.60, "unit": "relative units"},
      {"measurement": "MMP-1 mRNA in relative units (fold increase of baseline value)", "setting": "MMP-1 mRNA; 10^−8 M, 0 hours", "result": 1, "unit": "relative units"},
      {"measurement": "MMP-1 mRNA in relative units (fold increase of baseline value)", "setting": "MMP-1 mRNA; 10^−8 M, 2 hours", "result": 0.98, "unit": "relative units"},
      {"measurement": "MMP-1 mRNA in relative units (fold increase of baseline value)", "setting": "MMP-1 mRNA; 10^−8 M, 6 hours", "result": 1.31, "unit": "relative units"},
      {"measurement": "MMP-1 mRNA in relative units (fold increase of baseline value)", "setting": "MMP-1 mRNA; 10^−8 M, 12 hours", "result": 3.39, "unit": "relative units"},
      {"measurement": "MMP-1 mRNA in relative units (fold increase of baseline value)", "setting": "MMP-1 mRNA; 10^−8 M, 24 hours", "result": 3.79, "unit": "relative units"},
      {"measurement": "MMP-1 mRNA in relative units (fold increase of baseline value)", "setting": "MMP-1 mRNA; 10^−8 M, 48 hours", "result": 1.47, "unit": "relative units"},
      {"measurement": "MMP-1 mRNA in relative units (fold increase of baseline value)", "setting": "MMP-1 mRNA; 10^−8 M, after 24 hours", "result": 3.39, "unit": "relative units"},
      {"measurement": "MMP-1 mRNA in relative units (fold increase of baseline value)", "setting": "MMP-1 mRNA; 10^−9 M, after 24 hours", "result": 1.54, "unit": "relative units"},
      {"measurement": "time after discontinuation of treatment until inflammation decreases to 0", "setting": "human skin [2]; 0.1% to 1.0%, depending on the concentration (days 18 to 22)", "result": "4 to 8", "unit": "days"},
      {"measurement": "signs or symptoms of skin inflammation", "setting": "human skin [2]; 0.1%, 0.3% and 1.0% epicutaneous twice daily, around the tenth and eleventh day", "result": "slight erythema, desquamation and pruritus"},
      {"measurement": "signs or symptoms of skin inflammation", "setting": "human skin [2]; 0.1%, 0.3% and 1.0% epicutaneous twice daily, first 9 days after start of treatment, one volunteer", "result": "no signs or symptoms of skin inflammation"},
      {"measurement": "signs or symptoms of skin inflammation", "setting": "human skin [2]; 0.1 and 0.3% epicutaneous twice daily, days 12, 13 and 14", "result": "moderate inflammation"},
      {"measurement": "signs or symptoms of skin inflammation", "setting": "human skin [2]; 1.0% epicutaneous twice daily, days 12, 13 and 14", "result": "marked inflammation"}
    ]},
    {"smiles": "CCCCOc1c(\\C(C)=C/C=C/C(C)=C/C(=O)O)cc(C(C)(C)C)cc1C(C)(C)C", "note": "[compound A, (2E,4E,6Z)-7-[2-butoxy-3,5-bis(1,1-dimethylethyl)-phenyl]-3-methyl-2,4,6-octatrienoic acid]", "values": [
      {"measurement": "MPO activity compared to the vehicle control, normal skin", "setting": "normal skin of mice; compound A 0.05%, epicutaneous, 4 days", "result": "no significant change"},
      {"measurement": "MPO activity in % of that of the vehicle control, normal skin", "setting": "normal skin of mice; compound A 2.5%, epicutaneous, 4 days", "result": 57, "unit": "%"},
      {"measurement": "clinical signs or symptoms of a skin inflammation on normal skin", "setting": "normal skin of mice; epicutaneous 0.05% and 2.5% in acetone/ethanol, 4 consecutive days", "result": "does not induce clinical signs or symptoms of a skin inflammation"},
      {"measurement": "skin inflammation, objective or subjective symptoms", "setting": "human skin [2]; 1% epicutaneous twice daily day 1-14, observation to day 28", "result": "no skin inflammation"},
      {"measurement": "reduction of all parameters in comparison to the values of 9-cis RA", "setting": "human skin [3]", "result": "≥ 50", "unit": "%"},
      {"measurement": "reduction of the inflammatory reaction compared to vehicle control (skin thickness, erythema, area of inflamed skin)", "setting": "human skin [4]", "result": "very marked"}
    ]}
  ]
}
